IC50 data for two molecules are collected here from ChEMBL document CHEMBL4359912, “Novel N-Substituted oseltamivir derivatives as potent influenza neuraminidase inhibitors: Design, synthesis, biological evaluation, ADME prediction and molecular docking studies” (Eur J Med Chem, 2019).

SMILES strings stand for the structures.

The assay concerns the target Neuraminidase (Influenza A virus (A/Memphis/1/1971(H3N2)), UniProt P03471). Put plainly: Inhibition of influenza A virus H3N2 clinical isolate neuraminidase using NA-Fluor MUNANA as substrate preincubated for 20 to 30 mins followed by substrate addition and measured for 60 mins by fluorescence assay.

Sequence of Neuraminidase (Influenza A virus (A/Memphis/1/1971(H3N2)), UniProt P03471) (P03471 whole entry): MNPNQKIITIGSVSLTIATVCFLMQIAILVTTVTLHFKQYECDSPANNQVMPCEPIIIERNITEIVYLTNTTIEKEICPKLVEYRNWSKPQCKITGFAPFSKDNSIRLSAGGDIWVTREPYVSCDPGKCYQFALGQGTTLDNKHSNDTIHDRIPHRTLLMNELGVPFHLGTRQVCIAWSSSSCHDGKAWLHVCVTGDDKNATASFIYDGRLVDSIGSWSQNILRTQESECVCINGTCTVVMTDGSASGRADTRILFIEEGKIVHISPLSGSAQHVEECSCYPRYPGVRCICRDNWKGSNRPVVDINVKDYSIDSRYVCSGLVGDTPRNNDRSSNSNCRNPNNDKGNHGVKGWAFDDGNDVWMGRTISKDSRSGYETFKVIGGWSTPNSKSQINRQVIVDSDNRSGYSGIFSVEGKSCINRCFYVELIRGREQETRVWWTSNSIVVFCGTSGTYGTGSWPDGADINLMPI

As a reminder, the IC50 is the point on the concentration scale where inhibition reaches its midpoint. Molecule `CCC(CC)O[C@@H]1C=C(C(=O)O)C[C@H](NCc2noc(-c3ccco3)n2)[C@H]1NC(C)=O` registered an IC50 of 1.92 nM.
In the case of `CCC(CC)O[C@@H]1C=C(C(=O)O)C[C@H](NCc2ccc(-c3c(C)noc3C)o2)[C@H]1NC(C)=O`, the IC50 turned out to be 1.63 nM. This IC50 and that of the molecule before are within 1.5-fold of each other.
